Molecules are shown by their SMILES. pIC50: −log10 of the molar value. Bounds are passed on as bounds.

We go through 13 molecules from patent US12338256B2, “Aza-tetracyclic oxazepine compounds and uses thereof” (Genentech, Inc., priority 2022, dated 2025).

Holding throughout (type): cell-based
In assay [1] the test system is AsPC-1 (homozygous mutant KRAS G12D human pancreatic cell line). Kind of assay: KRAS 3D-Cell Proliferation Assay, AsPC-1 (Example 503). The settings on record: Homo sapiens, ASPC1, 168 h, AsPC-1 3D culture, 7 days, CellTiter-Glo 3D; read-out: Prolif AsPC-1 3D ATP IC50. Put shortly: (§1)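 KRAS G12D homozygous pancreatic lines and KRAS wild-type lung lines grown as 3D cultures in ultra-low-attachment wells in RPMI-1640/10% FBS, dosed after overnight with compound dilution series (0.3% DMSO final) for 7 days at 37 °C. ATP read by CellTiter-Glo 3D luminescence; IC50 from 4-parameter Hill fit, normalized to DMSO and 1 μM staurosporine.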

Assay [2] concerns PC-9 (KRAS wild type human lung adenocarcinoma cell line). Kind of assay: KRAS 3D-Cell Proliferation Assay, PC-9 (Example 503). The settings on record: 168 h, PC-9 3D culture, 7 days, CellTiter-Glo 3D, read-out: Prolif PC9 3D ATP IC50. As to the method: Example 503: KRAS 3D-Cell Proliferation Assays. Cellular potencies of compounds are assessed by evaluating inhibition of proliferation in 3D cultures of homozygous mutant KRAS G12D human pancreatic cell lines (AsPC-1 and HPAC) as compared to a KRAS wild type human lung adenocarcinoma cell line (PC-9 and/or H1975). Cells are seeded into 384-well black round-bottom, ultra-low attachment assay plates in 50 uL cell growth medium (RPMI-1640 with 10% fetal bovine serum and 2 mM L-glutamine). After overnight incubation at 37° C. and 5% CO2, compounds solubilized in DMSO are added as dilution series to the wells in a total volume of 150 nL (0.3% DMSO final). The cells are incubated for 7 days at 37° C. and 5% CO2. Cell proliferation is quantitated by addition of 40 uL/well of CellTiter-GloÒ 3D (Promega), and the well contents are mixed 20× at high speed using liquid handling automation workstation (Bravo with 384-well head) and centrifuged at 1500 rpm for 2 minutes to eliminate bubbles. This reagent in combination with mechanical disruption releases the cellular ATP to promote activity in a luciferase-based enzyme/substrate chemiluminescent detection system. After a 30-minute incubation under ambient conditions with shaking and an additional 10 minutes without shaking, the luminescence is read on a plate reader (e.g., EnVision [PerkinElmer]). The results are normalized to percent inhibition based on the following control samples: DMSO (0% inhibition) and 1 μM staurosporine (100% inhibition). The normalized luminescence results are plotted against compound concentration, and the data are fit to a 4-parameter Hill equation to determine the IC50 values.

Assay [3] concerns H1975 (KRAS wild type human lung adenocarcinoma cell line). The experiment in a line: KRAS 3D-Cell Proliferation Assay, H1975 (Example 503). As to conditions: Homo sapiens, NCI-H1975, 168 h, H1975 3D culture, 7 days, CellTiter-Glo 3D; read-out: Prolif H1975 3D ATP IC50. Put shortly: as §1
Assay [4] has as its system HPAC (homozygous mutant KRAS G12D human pancreatic cell line). Kind of assay: KRAS 3D-Cell Proliferation Assay, HPAC (Example 503). As to conditions: Homo sapiens, HPAC, 168 h, HPAC 3D culture, 7 days, CellTiter-Glo 3D; read-out: Prolif HPAC 3D ATP IC50. The procedure, abridged:
as §1

On to `Cc1cc(N)c(F)c(-c2nc3c4c(nc(OCC56CCN5CC(F)(F)C6)nc4c2F)N2C[C@H]4CC[C@H](N4)[C@H]2[C@H](C)O3)c1C(F)(F)F` (mixture of isomers) [Compound 33, 3-((5S,5aS,6S,9R)-12-((3,3-Difluoro-1-azabicyclo[3.2.0]heptan-5-yl)methoxy)-1-fluoro-5-methyl-5a,6,7,8,9,10-hexahydro-5H-4-oxa-3,10a,11,13,14-pentaaza-6,9-methanonaphtho[1,8-ab]heptalen-2-yl)-2-fluoro-5-methyl-4-(trifluoromethyl)aniline], for which the pIC50 in assay [1] is 8.43; in assay [2] it was 5.41; in assay [3] it was 5.73; in assay [4], 8.89.

On to `C#Cc1cccc2cc(O)cc(-c3nc4c5c(nc(OCC67CCN6CC(F)(F)C7)nc5c3F)N3C[C@H]5CC[C@H](N5)[C@H]3[C@H](C)O4)c12` (single isomer, unassigned) [Compound 20], for which the pIC50 in assay [1] was 7.54; in assay [2] it was 5.06; in assay [3], 5.65; in assay [4], 8.11.

Consider `C#Cc1cccc2cc(O)cc(-c3nc4c5c(nc(OC[C@@]67CCCN6C[C@H](F)C7)nc5c3F)N3C[C@H]5CC[C@H](N5)[C@H]3CO4)c12` [Compound 3, 5-ethynyl-4-((5aS,6S,9R)-1-fluoro-12-(((2R,7aS)-2-fluorotetrahydro-1H-pyrrolizin-7a(5H)-yl)methoxy)-5a,6,7,8,9,10-hexahydro-5H-4-oxa-3,10a,11,13,14-pentaaza-6,9-methanonaphtho[1,8-ab]heptalen-2-yl)naphthalen-2-ol], for which the pIC50 in assay [1] was 8.17; in assay [2], ≤ 4.70; in assay [3] it was 6.69; in assay [4], 7.95.

With `CCc1cccc2cc(O)cc(-c3nc4c5c(nc(OC[C@@]67CCCN6C[C@H](F)C7)nc5c3F)N3C[C@H]5CC[C@H](N5)[C@H]3CO4)c12` [Compound 5, 5-ethyl-4-((5aS,6S,9R)-1-fluoro-12-(((2R,7aS)-2-fluorotetrahydro-1H-pyrrolizin-7a(5H)-yl)methoxy)-5a,6,7,8,9,10-hexahydro-5H-4-oxa-3,10a,11,13,14-pentaaza-6,9-methanonaphtho[1,8-ab]heptalen-2-yl)naphthalen-2-ol], the pIC50 is 8.20 in assay [1], 5.04 in assay [2], 5.85 in assay [3] and 8.15 in assay [4].

Regarding `Cc1c(F)c(N)cc(-c2nc3c4c(nc(OC[C@@]56CCCN5C[C@H](F)C6)nc4c2F)N2C[C@H]4CC[C@H](N4)[C@H]2[C@H](C)O3)c1C(F)(F)F` [Compound 6, 2-Fluoro-5-((5S,5aS,6S,9R)-1-fluoro-12-(((2R,7aS)-2-fluorotetrahydro-1H-pyrrolizin-7a(5H)-yl)methoxy)-5-methyl-5a,6,7,8,9,10-hexahydro-5H-4-oxa-3,10a,11,13,14-pentaaza-6,9-methanonaphtho[1,8-ab]heptalen-2-yl)-3-methyl-4-(trifluoromethyl)aniline], the pIC50 in assay [1] was 9.25; in assay [2], 5.38; in assay [3], 6.16; in assay [4], 9.61.

For `C#Cc1c(F)ccc2cc(O)cc(-c3nc4c5c(nc(OC[C@@]67CCCN6C[C@H](F)C7)nc5c3F)N3C[C@H]5CC[C@H](N5)[C@H]3[C@H](C)O4)c12` [Compound 7, 5-Ethynyl-6-fluoro-4-((5S,5aS,6S,9R)-1-fluoro-12-(((2R,7aS)-2-fluorotetrahydro-1H-pyrrolizin-7a(5H)-yl)methoxy)-5-methyl-5a,6,7,8,9,10-hexahydro-5H-4-oxa-3,10a,11,13,14-pentaaza-6,9-methanonaphtho[1,8-ab]heptalen-2-yl)naphthalen-2-ol], the pIC50 was 8.72 in assay [1], 4.99 in assay [2], 6.89 in assay [3] and 8.87 in assay [4].

As to `C[C@@H]1Oc2nc(-c3cccc4cccc(Cl)c34)c(F)c3nc(OC[C@@]45CCCN4C[C@H](F)C5)nc(c23)N2C[C@H]3CC[C@H](N3)[C@@H]12` [Compound 8, (5S,5aS,6S,9R)-2-(8-chloronaphthalen-1-yl)-1-fluoro-12-(((2R,7aS)-2-fluorotetrahydro-1H-pyrrolizin-7a(5H)-yl)methoxy)-5-methyl-5a,6,7,8,9,10-hexahydro-5H-4-oxa-3,10a,11,13,14-pentaaza-6,9-methanonaphtho[1,8-ab]heptalene], the pIC50 in assay [1] was 7.14; in assay [2], 5.41; in assay [3], 5.37; in assay [4], 7.06.

Take `CCc1cccc2cc(O)cc(-c3nc4c5c(nc(OC[C@@]67CCCN6C[C@H](F)C7)nc5c3F)N3C[C@H]5CC[C@H](N5)[C@H]3[C@H](C)O4)c12` [Compound 10, 5-ethyl-4-((5S,5aS,6S,9R)-1-fluoro-12-(((2R,7aS)-2-fluorotetrahydro-1H-pyrrolizin-7a(5H)-yl)methoxy)-5-methyl-5a,6,7,8,9,10-hexahydro-5H-4-oxa-3,10a,11,13,14-pentaaza-6,9-methanonaphtho[1,8-ab]heptalen-2-yl)naphthalen-2-ol]: the pIC50 was 8.31 in assay [1], 5.18 in assay [2], 5.64 in assay [3] and 8.22 in assay [4].

With `C#Cc1cccc2cc(O)cc(-c3nc4c5c(nc(OC[C@@]67CCCN6C[C@H](F)C7)nc5c3F)N3C[C@H]5CC[C@H](N5)[C@H]3[C@H](C)O4)c12` [Compound 11, 5-ethynyl-4-((5S,5aS,6S,9R)-1-fluoro-12-(((2R,7aS)-2-fluorotetrahydro-1H-pyrrolizin-7a(5H)-yl)methoxy)-5-methyl-5a,6,7,8,9,10-hexahydro-5H-4-oxa-3,10a,11,13,14-pentaaza-6,9-methanonaphtho[1,8-ab]heptalen-2-yl)naphthalen-2-ol], the negative logarithm of the IC50 (pIC50) in assay [1] is 8.64; in assay [2], ≤ 4.70; in assay [3] it was 6.77; in assay [4], 8.62.

With `C[C@@H]1Oc2nc(-c3cnccc3C(F)(F)F)c(F)c3nc(OC[C@]45CCN4CC(F)(F)C5)nc(c23)N2C[C@H]3CC[C@H](N3)[C@@H]12` [Compound 78, (5S,5aS,6S,9R)-12-(((R)-3,3-Difluoro-1-azabicyclo[3.2.0]heptan-5-yl)methoxy)-1-fluoro-5-methyl-2-(4-(trifluoromethyl)pyridin-3-yl)-5a,6,7,8,9,10-hexahydro-5H-4-oxa-3,10a,11,13,14-pentaaza-6,9-methanonaphtho[1,8-ab]heptalene], the pIC50 in assay [1] was 4.80; in assay [2] it was ≤ 4.70.

On to `C[C@@H]1Oc2nc(-c3nc(N)c(F)cc3C(F)(F)F)c(F)c3nc(OC[C@@]45CCCN4C[C@H](F)C5)nc(c23)N2C[C@H]3CC[C@H](N3)[C@@H]12` [Compound 84, 3-Fluoro-6-((5S,5aS,6S,9R)-1-fluoro-12-(((2R,7aS)-2-fluorotetrahydro-1H-pyrrolizin-7a(5H)-yl)methoxy)-5-methyl-5a,6,7,8,9,10-hexahydro-5H-4-oxa-3,10a,11,13,14-pentaaza-6,9-methanonaphtho[1,8-ab]heptalen-2-yl)-5-(trifluoromethyl)pyridin-2-amine], for which the results for the pIC50 in assay [1] and in assay [2] were 5.94 and ≤ 4.70, respectively.

As for `C[C@@H]1Oc2nc(-c3nc(N)ccc3C(F)(F)F)c(F)c3nc(OC[C@@]45CCCN4C[C@H](F)C5)nc(c23)N2C[C@H]3CC[C@H](N3)[C@@H]12` [Compound 85, 6-((5S,5aS,6S,9R)-1-fluoro-12-(((2R,7aS)-2-fluorotetrahydro-1H-pyrrolizin-7a(5H)-yl)methoxy)-5-methyl-5a,6,7,8,9,10-hexahydro-5H-4-oxa-3,10a,11,13,14-pentaaza-6,9-methanonaphtho[1,8-ab]heptalen-2-yl)-5-(trifluoromethyl)pyridin-2-amine], the pIC50 in assay [1] was 6.01; in assay [2], ≤ 4.70.

In the case of `Cc1ccnc(-c2nc3c4c(nc(OC[C@]56CCN5CC(F)(F)C6)nc4c2F)N2C[C@H]4CC[C@H](N4)[C@H]2[C@H](C)O3)c1C(F)(F)F` [Compound 88, (5S,5aS,6S,9R)-12-(((R)-3,3-Difluoro-1-azabicyclo[3.2.0]heptan-5-yl)methoxy)-1-fluoro-5-methyl-2-(4-methyl-3-(trifluoromethyl)pyridin-2-yl)-5a,6,7,8,9,10-hexahydro-5H-4-oxa-3,10a,11,13,14-pentaaza-6,9-methanonaphtho[1,8-ab]heptalene], the pIC50 in assay [1] and in assay [2] was ≤ 4.70 throughout.
